In brackets after ≈: the same amount, converted by molar mass. Several values for one entry are separate records, joined by “and”; a condition that tells them apart may be missing. Identical values can stand only once. Marks after values point to notes of the source that are not given here.
What was measured:
[1] = test system: Candida albicans ATCC10231; assay: Broth microdilution MIC/MMC; settings: for MMC/MIC / MMC: C. albicans; for MMC: sub-culturing after broth microdilution; for MIC: Candida albicans, ATCC10231
[2] = test system: Cryptococcus neoformans H99; assay: Broth microdilution MIC/MMC; settings: for MMC/MIC / MMC: C. neoformans; for MMC: sub-culturing after broth microdilution; for MIC: Cryptococcus neoformans, H99
[3] = test system: Pseudomonas aeruginosa ATCC27853; assay: Broth microdilution MIC/MMC; settings: for MMC/MIC / MMC: P. aeruginosa; for MMC: sub-culturing after broth microdilution; for MIC: Pseudomonas aeruginosa, ATCC27853
Shigella flexneri SDINT = assay: Broth microdilution MIC/MMC; settings: for MMC/MIC / MMC: S. flexneri; for MMC: sub-culturing after broth microdilution; for MIC: Shigella flexneri
[4] = Gallic acid equivalent antioxidant capacity (GEAC) assay; format: biochemical; settings: laccase/ABTS, 420 nm after 240 s; mean ± SD
Experimental: The GEAC test was done as previously described with slight modifications. In a quartz cuvette, to 950 μL acetate buffer (pH =5.0, 100 mM), the following were added: 20 μL laccase (1 mM stock solution), 20 μL test sample, 10 μL ABTS (2,2′-azinobis(3-ethylbenzothiazoline-6-sulfonic acid) (74 mM stock solution). The purification of laccase from Sclerotinia sclerotiorum was done according to the protocol described. The sample concentrations in the assay mixture were 800, 400, 200, 100, 10 μg/mL for the extracts and 200, 100, 50, 25, 12.5, 6.25, 3.125, 1.56 μg/mL for the isolated compounds. The content of the generated ABTS^●+ radical was measured at 420 nm after 240 s reaction time and was converted to gallic acid equivalents by the use of a calibration curve (Pearson’s correlation coefficient: r = 0.997) constructed with 0, 4, 10, 14, 28, 56, 84 μM gallic acid standards rather than Trolox. Experiments were done in triplicate.

[5] = test system: Staphylococcus aureus ATCC25923; assay: Broth microdilution MIC/MMC; settings: for MMC/MIC / MMC: S. aureus; for MMC: sub-culturing after broth microdilution; for MIC: Staphylococcus aureus, ATCC25923
[6] = test system: methicillin sensitive S. aureus MSSA01; assay: Broth microdilution MIC/MMC; settings: for MMC/MIC / MMC: MSSA01; for MMC: sub-culturing after broth microdilution; for MIC: Staphylococcus aureus
[7] = test system: methicillin resistant S. aureus MRSA03; assay: Broth microdilution MIC/MMC; settings: for MMC/MIC / MMC: MRSA03; for MMC: sub-culturing after broth microdilution; for MIC: Staphylococcus aureus
[8] = DPPH free radical scavenging assay; format: biochemical; settings: mean ± SD, triplicate
Experimental: The free radical scavenging activity of extracts and compounds was evaluated according to described methods. The EC50 (μg/ml), which is the amount of sample necessary to inhibit by 50% the absorbance of free radical DPPH was calculated. Vitamin C was used as a standard control. All the analyses were carried out in triplicate.

| Compound | MMC/MIC [1] | MMC [1] [µg/mL] | MIC [1] [µg/mL] | MMC/MIC [2] | MMC [2] [µg/mL] | MIC [2] [µg/mL] | MMC/MIC [3] | MMC [3] [µg/mL] | MIC [3] [µg/mL] | MMC/MIC (Shigella flexneri SDINT) | MMC (Shigella flexneri SDINT) [µg/mL] | MIC (Shigella flexneri SDINT) [µg/mL] | Gallic acid equivalent antioxidant capacity (GEAC) [4] | MMC/MIC [5] | MMC [5] [µg/mL] | MIC [5] [µg/mL] | MMC/MIC [6] | MMC [6] [µg/mL] | MIC [6] [µg/mL] | DPPH free radical scavenging activity (EC50) [8] | further results |
| --- | --- | --- | --- | --- | --- | --- | --- | --- | --- | --- | --- | --- | --- | --- | --- | --- | --- | --- | --- | --- | --- |
| OC(Cn1cncn1)(Cn1cncn1)c1ccc(F)cc1F [fluconazole, reference compound] | 1 | 1 | 1 (≈ 3.27 µM) | 1 | 2 | 2 (≈ 6.53 µM) |  |  |  |  |  |  |  |  |  |  |  |  |  |  |  |
| O=C1c2cc(O)cc(O)c2C(=O)c2c(O)cc(CO)cc21 [Compound 5, 6-hydroxyemodin (Citreorosein)] | 2 | 32 | 16 (≈ 55.9 µM) | 2 | 32 | 16 (≈ 55.9 µM) | 2 | 64 | 32 (≈ 112 µM) | 1 | 32 | 32 (≈ 112 µM) | 81.09 ± 0.93 μg/mL and 81.09 ± 0.93^e μg/mL | 1 | 32 | 32 (≈ 112 µM) | 2 | 256 | 128 (≈ 447 µM) | 9.88 ± 0.62^f μg/mL | MMC/MIC [7]: 2; MMC [7]: 256 µg/mL; MIC [7]: 128 µg/mL (≈ 447 µM) |
| Cc1cc(O)c2c(c1)C(=O)c1cccc(O)c1C2=O [Compound 1, Chrysophanol] | 1 | 64 | 64 (≈ 252 µM) | 1 | 32 | 32 (≈ 126 µM) | 2 | 128 | 64 (≈ 252 µM) | 1 | 32 | 32 (≈ 126 µM) | 104.87 ± 1.43^d μg/mL | 2 | 64 | 32 (≈ 126 µM) | 1 | 64 | 64 (≈ 252 µM) | 4.52 ± 0.36^d μg/mL | MMC/MIC [7]: 2; MMC [7]: 128 µg/mL; MIC [7]: 64 µg/mL (≈ 252 µM) |
| O=C1O[C@H]([C@@H](O)CO)C(O)=C1O [Vitamin C, reference compound] |  |  |  |  |  |  |  |  |  |  |  |  |  |  |  |  |  |  |  | 1.81 ± 0.19^h μg/mL |  |
